The text below walks through data of US20230190760A1, “ADVANTAGEOUS THERAPIES FOR DISORDERS MEDIATED BY IKAROS OR AIOLOS” (C4 Therapeutics, Inc., priority 2020, published 2023).

Each structure is given as a SMILES string.

Test [1] concerns MM1.S multiple myeloma tumors. The test can be described thus: Disseminated MM1.S-Luc multiple myeloma model, bioluminescence. It is filed as in vivo, mice. The note with it: 300 μg/kg QD orally. The procedure: Compound 1 was administered at 300 μg/kg QD (every day) orally to female NOD SCID mice with disseminated MM1.S multiple myeloma tumors with a measurable MM1.S tumor burden on day 0 and dosed PO daily for 3 weeks. […] Data are expressed as mean BLI±SEM.
A xenograft study was conducted. Female SCID animals were irradiated with a 200 rads Co60 irradiator source and after 24 hours, animals were inoculated via tail vein injection with 1×107 MM1.S-Luc in 200 μL PBS. Tumor burden was measured twice weekly using imaging analysis. Mice were injected intraperitoneally with 15 mg/mL of D-luciferin and anesthetized with 1-2% isoflurane inhalation. 10 minutes post luciferin injection, mice were imaged using IVIS Lumina II (Perkin Elmer) and total bioluminescence signal (BLI, photons/s) was measured in a region of interest (ROI). BLI from ROI were quantified and used as an indicator of tumor burden. 29 days post tumor cell inoculation mice were randomized into two groups, with 3 mice per group and an average BLI of 17×10^6 photons. FIG. 6 are images of the mice administered Compound 1 compared to the mice administered vehicle. Images were taken on days 4, 7, 11, 14, and 18.

The next test has as its system OPM-2. Briefly: Anti-proliferative activity, 96 hours. To be noted: Homo sapiens, OPM-2, 96 h.
The test system of test [2] is 8 multiple myeloma cell lines. Briefly: Growth of 8 multiple myeloma cell lines (CellTiter-Glo, 96 hour). It is filed as cell-based.
The next test deals with Rec-1. The test can be described thus: Anti-proliferative activity, 96 hours. To be noted: Homo sapiens, Rec1, 96 h.
The test system of test [3] is cutaneous T-cell lymphoma (CTCL) cell lines. The test can be described thus: Anti-cancer activity in CTCL cell lines. The class given is cell-based. To be noted: three of four cell lines tested were responsive, read-out: mean IC50 among the responsive lines.
Setting [4] is: all eight multiple myeloma cell lines.

For the molecule `O=C1CC[C@H](N2C(=O)c3cccc4c(Cc5ccc(CN6CCOCC6)cc5)ccc2c34)C(=O)N1` (single isomer, unassigned) [Compound 1], in test [1], the total bioluminescence signal result is “significantly less than the mice administered vehicle”. The IC50 – broadly, the concentration needed to halve the response being measured – in the test with OPM-2 was 0.058 nM; in test [2] (setting [4]), below 1 nM; in the test with Rec-1 it was 0.353 nM; in test [3] it was 30 nM. Moreover, the results for the “more potent than pomalidomide” value in test [2] (across a panel of cell lines (FIG. 32)) and in test [2] (eight multiple myeloma cell lines) were 2-3 magnitudes and 1000 fold, respectively. The maximal inhibition entry in test [2] (setting [4]) is “greater than 50%”.
